Like-named read-outs stand apart in the source and are kept apart here.
Tests used:
[1] = test system: cerebellar granule neurons (CGNs); test: Neurotoxicity on primary cultures of cerebellar granule neurons (nuclei counting after Hoechst staining); details: differentiated CGNs, 24 h, percentage of healthy nuclei on total nuclei, mean ± SEM of three experiments
[2] = target: T1, Aβ42 (Homo sapiens, UniProt P05067); test: Inhibition of Aβ42 aggregation in intact E. coli cells overexpressing Aβ42 (ThS fluorescence); type: cell-based, Escherichia coli
T1 construct: expressed in transfected cells; host or cells: Escherichia coli BL21 (DE3), pET28a
Text: (§1) As it would have been labor-intensive and expensive to screen such a number of compounds in two separate antiaggregating studies using recombinant Aβ and Tau, we turned our attention to a simple model of protein aggregation, namely, the intact Escherichia coli (E. coli) cells overexpressing Aβ42 and Tau proteins.[28],[29] Building on the fact that inclusion bodies produced by overexpression of these proteins in E. coli mainly consist of fibrillar aggregates, this simple screening method uses bacteria as an in vivo reservoir for tracking the inhibition of amyloid-type protein aggregation in real time, using the amyloid dye thioflavin S (ThS). Of note, this screening has already been used for the evaluation of libraries of antiaggregating compounds.[28]−[38]
Escherichia coli competent cells BL21 (DE3) were transformed with the pET28a vector (Novagen, Inc., Madison, WI) carrying the DNA sequence of Aβ42. Because of the addition of the initiation codon ATG in front of both genes, the overexpressed peptide contains an additional methionine residue at its N terminus. For overnight culture preparation, an amount of 10 mL of M9 minimal medium containing 50 μg·mL^–1 kanamycin was inoculated with a colony of BL21 (DE3) bearing the plasmid to be expressed at 37 °C. For expression of the Aβ42 peptide, the required volume of overnight culture to obtain 1:500 dilution was added into fresh M9 minimal medium containing 50 μg·mL^–1 kanamycin and 250 μM ThS. The bacterial culture was grown at 37 °C and 250 rpm. When the cell density reached ABS600 nm = 0.6, an amount of 980 μL of culture was transferred into Eppendorf tubes of 1.5 mL with 10 μL of each compound to be tested in DMSO and 10 μL of isopropyl 1-thio-β-D-galactopyranoside (IPTG) at 100 mM. The final concentration of the drug was fixed at 10 μM. The samples were grown overnight at 37 °C and 1400 rpm using a thermomixer (Eppendorf, Hamburg, Germany). As the control of the amyloid presence (maximal amyloid presence), the same amount of DMSO without the drug was added to the sample. In parallel, noninduced samples (in the absence of IPTG) were also prepared and used as controls of the non-amyloid presence. In addition, the absorbance at 600 nm of the samples was checked to assess the potential intrinsic toxicity of the compounds and to confirm the correct bacterial growth.
(§2) ThS (T1892) and other chemical reagents were purchased from Sigma (St. Louis, MO). ThS stock solution (25 mM) was prepared in double-distilled water purified through a Milli-Q system (Millipore). For the fluorescence assay, the ThS spectra were measured on an AMINCO-Bowman series 2 luminescence spectrophotometer (Aminco-Bowman AB2, SLM Aminco, Rochester, NY) from 460 to 600 nm at 25 °C using an excitation wavelength of 440 nm and slit widths of 4 nm. The emission at 485 nm (fluorescence peak of ThS in the presence of amyloids) was recorded. To normalize the ThS fluorescence as a function of the bacterial concentration, ABS600nm was obtained using a Shimadzu UV-2401 PC UV–Vis spectrophotometer (Shimadzu, Japan). Note that the fluorescence normalization was carried out considering as 100% the ThS fluorescence of the bacterial cells expressing the peptide or protein in the absence of the drug and 0% the ThS fluorescence of the bacterial cells nonexpressing the peptide or protein.

[3] = target: T2, Tau protein (Homo sapiens, UniProt P10636); test: Inhibition of Tau aggregation in intact E. coli cells overexpressing Tau (ThS fluorescence); type: cell-based, Escherichia coli; details: for inhibition at 10 µM: read-out: % inhibition Tau aggregation @ 10 μM, intact E. coli cells, compound 10 μM, mean ± SEM of four independent experiments; for % inhibition Tau aggregation @ 10 μM: intact E. coli cells, compound 10 μM, mean ± SEM of four independent experiments
T2 construct: expressed in transfected cells; host or cells: Escherichia coli BL21 (DE3) with pTARA and pRKT42
Text: as §1
E. coli BL21 (DE3) competent cells were transformed with pTARA containing the RNA-polymerase gen of the T7 phage (T7RP) under the control of the promoter PBAD. E. coli BL21 (DE3) with pTARA competent cells were transformed with the pRKT42 vector encoding four repeats of Tau protein in two inserts. For overnight culture preparation, 10 mL of M9 medium containing 0.5% of glucose, 100 μg·mL^–1 ampicillin, and 12.5 μg·mL^–1 chloramphenicol were inoculated with a colony of BL21 (DE3) bearing the plasmids to be expressed at 37 °C. For expression of Tau protein, the required volume of overnight culture to obtain 1:500 dilution was added to fresh M9 minimal medium containing 0.5% of glucose, 50 μg·mL^–1 ampicillin, 12.5 μg·mL^–1 chloramphenicol, and 25 μM ThS. The bacterial culture was grown at 37 °C and 250 rpm. When the cell density reached ABS600 nm= 0.6, an amount of 980 μL of culture was transferred into Eppendorf tubes of 1.5 mL with 10 μL of each compound to be tested in DMSO and 10 μL of arabinose at 25%. The final concentration of the drug was fixed at 10 μM. The samples were grown overnight at 37 °C and 1400 rpm using a thermomixer (Eppendorf, Hamburg, Germany). As the control of maximal amyloid presence, the same amount of DMSO without the drug was added to the sample. In parallel, noninduced samples (in the absence of arabinose) were also prepared and used as controls for the amyloid absence. In addition, the absorbance at 600 nm of the samples was checked to assess the potential intrinsic toxicity of the compounds and to confirm the correct bacterial growth.
as §2

[4] = read-out: % inhibition Aβ42 aggregation @ 10 μM, intact E. coli cells, compound 10 μM, mean ± SEM of four independent experiments

T1 sequence (P05067 672-713 limits assumed): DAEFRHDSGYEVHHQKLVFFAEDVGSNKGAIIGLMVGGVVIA
T2 sequence (P10636 1-441 isoform P10636-8): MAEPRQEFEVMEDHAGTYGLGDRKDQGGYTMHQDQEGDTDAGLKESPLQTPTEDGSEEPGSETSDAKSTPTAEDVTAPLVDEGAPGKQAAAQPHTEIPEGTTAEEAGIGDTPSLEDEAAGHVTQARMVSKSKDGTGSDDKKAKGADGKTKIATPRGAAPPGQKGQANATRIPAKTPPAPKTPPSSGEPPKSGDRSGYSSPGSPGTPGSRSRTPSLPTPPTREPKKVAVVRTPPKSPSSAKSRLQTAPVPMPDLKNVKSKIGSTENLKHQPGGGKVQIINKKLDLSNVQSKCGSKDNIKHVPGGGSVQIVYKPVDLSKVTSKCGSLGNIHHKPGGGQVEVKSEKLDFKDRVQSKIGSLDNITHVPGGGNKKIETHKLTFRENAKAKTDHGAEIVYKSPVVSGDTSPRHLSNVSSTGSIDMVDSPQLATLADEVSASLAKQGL

SMILES | % survival neurotoxicity @ 10 μM [1] [%] | inhibition at 10 µM [2, 4] [%] | inhibition at 10 µM [3] [%] | % inhibition Tau aggregation @ 10 μM ([3]; 10 µM) [%] | % inhibition Aβ42 aggregation @ 10 μM ([2]; intact E. coli cells, compound 10 μM, mean ± SEM of four independent experiments) [%] | % inhibition Tau aggregation @ 10 μM [3] [%] | inhibition at 10 µM ([2]; read-out: % inhibition Aβ42 aggregation @ 10 μM) [%]
O=C1NC(=O)/C(=C/c2ccc(/C=C3\SC(=O)NC3=O)cc2)S1 [Compound 1, (5Z,5′Z)-5,5′-(1,4-Phenylenebis(methanylylidene))bis(thiazolidine-2,4-dione)] | 77.6 ± 6.1 | 25.4 ± 1.9 | 19.4 ± 3.6 |  |  |  | 
O=C1NC(=O)/C(=C/c2ccc(-c3ccc(/C=C4\SC(=O)NC4=O)cc3)cc2)S1 [Compound 2, (5Z,5′Z)-5,5′-([1,1′-Biphenyl]-4,4′-diylbis(methanylylidene))bis(thiazolidine-2,4-dione)] | 81.3 ± 6.5 | 20.2 ± 2.1 | 16.5 ± 3.1 |  |  |  | 
O=C1NC(=O)/C(=C/c2ccc(Cc3ccc(/C=C4\SC(=O)NC4=O)cc3)cc2)S1 [Compound 3, (5Z,5′Z)-5,5′-((Methylenebis(4,1-phenylene))bis(methanylylidene))bis(thiazolidine-2,4-dione)] | 62.4 ± 9.6 | 12.9 ± 3.4 | 5.2 ± 2.7 |  |  |  | 
O=C1NC(=O)/C(=C/c2ccc3[nH]c4ccc(/C=C5\SC(=O)NC5=O)cc4c3c2)S1 [Compound 4, (5Z,5′Z)-5,5′-((9H-Carbazole-3,6-diyl)bis(methanylylidene))bis(thiazolidine-2,4-dione)] | 73.4 ± 5.1 | 24.7 ± 4.1 | 21.2 ± 2.6 |  |  |  | 
CC1(C)c2cc(/C=C3\SC(=O)NC3=O)ccc2-c2ccc(/C=C3\SC(=O)NC3=O)cc21 [Compound 5, (5Z,5′Z)-5,5′-((9,9-Dimethyl-9H-fluorene-2,7-diyl)bis(methanylylidene))bis(thiazolidine-2,4-dione)] | 67.9 ± 5.4 | 23.6 ± 2.6 | 14.8 ± 3 |  |  |  | 
O=C1NC(=O)/C(=C/c2ccc(-c3ccc(/C=C4\SC(=O)NC4=O)s3)s2)S1 [Compound 6, (5Z,5′Z)-5,5′-([2,2′-Bithiophene]-5,5′-diylbis(methanylylidene))bis(thiazolidine-2,4-dione)] | 89.9 ± 1.2 | 42.4 ± 4.5 | < 20 | 19.4 ± 3.9 |  |  | 
CCOC(=O)CN1C(=O)S/C(=C\c2ccc(-c3ccc(/C=C4\SC(=O)N(CC(=O)OCC)C4=O)cc3)cc2)C1=O [Compound 8, Diethyl 2,2′-((5Z,5′Z)-([1,1′-biphenyl]-4,4′-diylbis(methanylylidene))bis(2,4-dioxothiazolidin-3-yl-5-ylidene))diacetate] | 87.2 ± 3.1 | 14.3 ± 3.5 | 18.1 ± 3.2 |  |  |  | 
CCOC(=O)CN1C(=O)S/C(=C\c2ccc(Cc3ccc(/C=C4\SC(=O)N(CC(=O)OCC)C4=O)cc3)cc2)C1=O [Compound 9, Diethyl 2,2′-((5Z,5′Z)-((methylenebis(4,1-phenylene))bis(methanylylidene))bis(2,4-dioxothiazolidin-3-yl-5-ylidene))diacetate] | 88.7 ± 4.1 | 14.5 ± 4.1 | 19.9 ± 3.6 |  |  |  | 
CCOC(=O)CN1C(=O)S/C(=C\c2ccc3c(c2)C(C)(C)c2cc(/C=C4\SC(=O)N(CC(=O)OCC)C4=O)ccc2-3)C1=O [Compound 11, Diethyl 2,2′-((5Z,5′Z)-((9,9-dimethyl-9H-fluorene-2,7-diyl)bis(methanylylidene))bis(2,4-dioxothiazolidin-3-yl-5-ylidene))diacetate] | 85.8 ± 6.9 | 17.5 ± 4.5 | 33.1 ± 4.5 |  |  |  | 
CCOC(=O)CN1C(=O)S/C(=C\c2ccc(-c3ccc(/C=C4\SC(=O)N(CC(=O)OCC)C4=O)s3)s2)C1=O [Compound 12, Diethyl 2,2′-((5Z,5′Z)-([2,2′-bithiophene]-5,5′-diylbis(methanylylidene))bis(2,4-dioxothiazolidin-3-yl-5-ylidene))diacetate] | 90.2 ± 2.1 | 7 ± 3.7 | 9.2 ± 5 |  |  |  | 
O=C(O)CN1C(=O)S/C(=C\c2ccc(/C=C3\SC(=O)N(CC(=O)O)C3=O)cc2)C1=O [Compound 13, 2,2′-((5Z,5′Z)-(1,4-Phenylenebis(methanylylidene))bis(2,4-dioxothiazolidin-3-yl-5-ylidene))diacetic acid] | 82.3 ± 2.9 | 16.1 ± 3.9 | 25.3 ± 4.2 |  |  |  | 
O=C(O)CN1C(=O)S/C(=C\c2ccc(-c3ccc(/C=C4\SC(=O)N(CC(=O)O)C4=O)cc3)cc2)C1=O [Compound 14, 2,2′-((5Z,5′Z)-([1,1′-Biphenyl]-4,4′-diylbis(methanylylidene))bis(2,4-dioxothiazolidin-3-yl-5-ylidene))diacetic acid] | 89.0 ± 2.2 | 35.1 ± 1.9 | 27.1 ± 2.5 |  |  |  | 
O=C(O)CN1C(=O)S/C(=C\c2ccc(Cc3ccc(/C=C4\SC(=O)N(CC(=O)O)C4=O)cc3)cc2)C1=O [Compound 15, 2,2′-((5Z,5′Z)-((Methylenebis(4,1-phenylene))bis(methanylylidene))bis(2,4-dioxothiazolidin-3-yl-5-ylidene))diacetic acid] | 90.9 ± 1.5 | 26.2 ± 1.9 | 3.8 ± 5.2 |  |  |  | 
O=C(O)CN1C(=O)S/C(=C\c2ccc(-c3ccc(/C=C4\SC(=O)N(CC(=O)O)C4=O)s3)s2)C1=O [Compound 18, 2,2′-((5Z,5′Z)-([2,2′-Bithiophene]-5,5′-diylbis(methanylylidene))bis(2,4-dioxothiazolidin-3-yl-5-ylidene))diacetic acid] | 90.9 ± 3.1 | 65.6 ± 3.3 | < 20 | 15.8 ± 4.7 |  |  | 
CC1=CC2Cc3nc4cc(Cl)ccc4c(NCCCCCCCNc4c5c(nc6ccccc46)CCCC5)c3C(C1)C2 (stereo not drawn) [HUP7TH, reference compound] |  |  |  |  | 77.6 ± 1.5 | 69.5 ± 1.6 | 
CC1=CC2Cc3nc4cc(Cl)ccc4c(N)c3C(C1)C2 (stereo not drawn) [Huprine Y, huprine Y, reference compound] |  |  |  |  |  |  | 4.6 ± 2.3
O=C(O)c1cc(O)c2c(c1)C(=O)c1cccc(O)c1C2=O [Rhein, rhein, reference compound] |  |  | 39.2 ± 2.1 |  |  |  | 
